Laboratory results reported in patent US6077519A, “Methods for isolation and use of T cell epitopes eluted from viable cells in vaccines for treating cancer patients” (University of Pittsburgh, priority 1997, dated 2000).
“Also recorded” adds a separate entry of the source. Ends that are not written are not given here.

B1: recombinant murine interleukin 12 (protein, UniProt P43431 23-215; P43432 23-335, looked up)
Interleukin-12 subunit alpha: RVIPVSGPARCLSQSRNLLKTTDDMVKTAREKLKHYSCTAEDIDHEDITRDQTSTLKTCLPLELHKNESCLATRETSSTTRGSCLPPQKTSLMMTLCLGSIYEDLKMYQTEFQAINAALQNHNHQQIILDKGMLVAIDELMQSLNHNGETLRQKPPVGEADPYRVKMKLCILLHAFSTRVVTINRVMGYLSSA
Interleukin-12 subunit beta: MWELEKDVYVVEVDWTPDAPGETVNLTCDTPEEDDITWTSDQRHGVIGSGKTLTITVKEFLDAGQYTCHKGGETLSHSHLLLHKKENGIWSTEILKNFKNKTFLKCEAPNYSGRFTCSWLVQRNMDLKFNIKSSSSSPDSRAVTCGMASLSAEKVTLDQRDYEKYSVSCQEDVTCPTAEETLPIELALEARQQNKYENYSTSFFIRDIIKPDPPKNLQMKPLKNSQVEVSWEYPDSWSTPHSYFSLKFFVRIQRKKEKMKETEEGCNQKGAFLVEKTSTEVQCKGGNVCVQAQDRYYNSSCSKWACVPCRVRS

Legend:
HLA-A2 [1] = biological target: T1, HLA-A2 (Homo sapiens, UniProt P04439); assay: HLA-A2 stabilization assay on T2 cells; format: binding; conditions: MA2.1
T1 construct: peptide stabilization read with MA2.1 by flow cytometry
T1 sequence (P04439 25-365): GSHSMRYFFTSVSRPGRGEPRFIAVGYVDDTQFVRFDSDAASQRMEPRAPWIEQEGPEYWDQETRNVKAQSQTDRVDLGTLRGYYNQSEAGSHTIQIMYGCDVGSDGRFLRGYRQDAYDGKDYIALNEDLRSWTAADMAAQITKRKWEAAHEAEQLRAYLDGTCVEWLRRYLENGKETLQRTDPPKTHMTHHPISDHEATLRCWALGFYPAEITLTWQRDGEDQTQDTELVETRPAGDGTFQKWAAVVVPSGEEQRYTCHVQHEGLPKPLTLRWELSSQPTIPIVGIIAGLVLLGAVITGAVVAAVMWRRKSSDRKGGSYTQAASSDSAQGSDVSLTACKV
T1 sequence (P61769 21-119 partner): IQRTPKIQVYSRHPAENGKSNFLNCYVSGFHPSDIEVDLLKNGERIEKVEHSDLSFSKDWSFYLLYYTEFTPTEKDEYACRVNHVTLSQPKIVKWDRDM

Mel 624 [2] = assay: induction of anti-melanoma CTL from melanoma patient PBMC by peptide-pulsed autologous DC, lysis of Mel 624; format: cell-based, human; conditions: for Patient PBL Response (responders/patients): lysis of Mel 624 >20% at E:T 10:1, >80% inhibited by BB7.2
Text: Heparinized peripheral blood was obtained by venipuncture from 15 HLA-A2^+ normal donors and 10 HLA-A2^+ donors with AJCC Stage III or IV melanoma treated at the University of Pittsburgh Cancer Institute/University of Pittsburgh School of Medicine. Peripheral blood mononuclear cells ("PBMC") were obtained after density centrifugation on Ficoll-Hypaque gradients per the manufacturer's protocol (LSM, Organon-Teknika, Durham, N.C.). […] Non-adherent cells were frozen in liquid nitrogen in 90% fetal bovine serum/10% DMSO and were retained as T cell enriched responder populations. Plastic adherent cells were cultured for 5-7 days in AIM-V medium supplemented with 1000 U rIL-4/ml+1000 U rGM-CSF/ml at 37° C., 5% CO2 and served as the source of autologous dendritic cells. No medium was added or removed during this culture period. […] Gradient interface cells were harvested, washed with HBSS, and used in phenotypic and functional assays, as outlined below. Cells generated in this way were determined to be greater than 90% DC based on morphology and the expression of a CD1a+, CD1b+, CD1c+, CD3-, CD14-, CD16-, CD20-, CD40+, CD80+, CD83+, CD86+, MHC class II+phenotype assessed by flow cytometry.
(§1) Plastic non-adherent DC (1-2×10^6) were harvested from IL-4+GM-CSF cultures on days 7, 14, 21, and 28, and washed twice with HBSS. […] Peptide-pulsing (10 μM final peptide concentration) was allowed to proceed for 2 hours at 37° C., at which time, the cells were washed twice with HBSS, resuspended in 1 ml of AIM-V and irradiated (2500 rad) using a cesium source. Day 7 peptide-pulsed DC were used to "prime" freshly-thawed, autologous PBMC (plastic adherent depleted) responders at a 20:1 responder-to-stimulator ratio. Responding T cells were restimulated weekly (for 4 weeks) using irradiated, peptide-pulsed autologous DC at a 20:1 responder-to-restimulator ratio in AIM-V medium containing 60 IU/ml rhIL-2 (Chiron, Emeryville, Calif.).
(§2) Four hour chromium release assays were performed as described previously. Target cells were labeled with 100 μCi (Na2^51 CrO4, Dupont-New England Nuclear, Bedford, Mass.) at 37° C. for 1-2 hours prior to being washed three times with HBSS. 10^4 51 Cr-labeled cells were added to each target well±effector cells for 4 h, 37° C., 5% CO2 in a total volume of 200 μl.
Autologous, cultured d7 IL-4+GM-CSF PB-DC were pulsed with the indicated peptides for 2h at room temperature prior to washing and use as stimulators for CTL induction in vitro. […] 12 HLA-A2+ normal donors and 10 HLA-A2+ patients with metastatic melanoma were screened.
In parallel experiments, PBMC derived from 10 patients diagnosed with AJCC stage III or IV melanoma were stimulated with autologous DC pulsed with these same series of peptides.

Mel 624 [3] = assay: induction of anti-melanoma CTL from normal donor PBMC by peptide-pulsed autologous DC, lysis of Mel 624; format: cell-based, human; conditions: for Normal PBL Response (responders/donors): lysis of Mel 624 >20% at E:T 10:1, >80% inhibited by BB7.2; for Peak week of CTL reactivity, Normal PBL / number of stimulations to induce anti-melanoma CTL: normal donors; for lysis of Mel 624 by induced anti-melanoma CTL: E:T 10:1, normal donors
Experimental: Peripheral blood mononuclear cells ("PBMC") were obtained after density centrifugation on Ficoll-Hypaque gradients per the manufacturer's protocol (LSM, Organon-Teknika, Durham, N.C.). […] Non-adherent cells were frozen in liquid nitrogen in 90% fetal bovine serum/10% DMSO and were retained as T cell enriched responder populations. Plastic adherent cells were cultured for 5-7 days in AIM-V medium supplemented with 1000 U rIL-4/ml+1000 U rGM-CSF/ml at 37° C., 5% CO2 and served as the source of autologous dendritic cells. No medium was added or removed during this culture period. […] Gradient interface cells were harvested, washed with HBSS, and used in phenotypic and functional assays, as outlined below. Cells generated in this way were determined to be greater than 90% DC based on morphology and the expression of a CD1a+, CD1b+, CD1c+, CD3-, CD14-, CD16-, CD20-, CD40+, CD80+, CD83+, CD86+, MHC class II+phenotype assessed by flow cytometry.
as §1, §2
PBMC responder T cells derived from normal donors (n=12) were repetitively stimulated weekly for 1-4 weeks with irradiated, autologous cultured dendritic cells pre-pulsed with either no peptide or individually pulsed with the previously identified, HLA-A2-presented melanoma peptides listed in Table 9, below.
Autologous, cultured d7 IL-4+GM-CSF PB-DC were pulsed with the indicated peptides for 2h at room temperature prior to washing and use as stimulators for CTL induction in vitro. […] 12 HLA-A2+ normal donors and 10 HLA-A2+ patients with metastatic melanoma were screened. […] Peak week of CTL reactivity is noted in parentheses.

TIL 1235 = conditions: TIL 1235, data not shown
CTL clone A42 = conditions: CTL clone A42, data not shown
TIL 5403 = conditions: TIL 5403, data not shown
T2 target cells = assay: CTL lysis of p939-pulsed T2 target cells; format: cell-based, human; conditions: without exogenous β2 -m and MA2.1
Experimental: (§3) Peptide loading was facilitated by the presence of the β2 -m and MA2.1 reagents as described by Zeh, H. J., et al., Hum. […] The cells were then incubated for 2 hours at room temperature.

A42-clone = conditions: read-out: half-maximal sensitization for lysis, T2, E:T 10:1
Experimental: as §3

GL1 CTL = format: cell-based, human
HLA-A2 [4] = biological target: T1, HLA-A2; conditions: reported by Cox et al.; cited from earlier work
MCA205 fibrosarcoma = assay: in vivo therapy of established MCA205 tumors in C57BL/6 mice; set-up: species or system mouse; conditions: day 4 (but not day 8) tumor models
Experimental: Before being used in vaccines, DC were pulsed overnight with crude, unfractionated, acid-eluted peptides derived from relevant tumors or control syngeneic spleens. Peptide-pulsed DC were extensively washed and then irradiated (3,000 rads) before i.v. injection in the tail vein of tumor-bearing animals. In the fibrocarcinoma MCA205 and mammary adenocarcinoma TS/A tumor models, animals were injected three to four times, starting at day 4 or day 8 after tumor establishment and subsequently, every 4 days, with 3-5×10^5 DC pulsed with peptides. Alternatively, in the C3 tumor model, animals were injected on days 14, 21, and 28 after initial intradermal (i.d.) tumor inoculation.
1 million BM-DC were pulsed with peptides derived from 10^8 to 10^9 cells (tumor or spleen) in a total volume of 1-2 ml of DC media overnight at 37° C., 55 CO2. Splenocytes freshly harvested from B6 animals were used as a cellular source of irrelevant peptides.
Twice the minimal tumorigenic dose of tumor cells (2×10^5 MCA205, 10^5 TS/A, or 2×10^6 C3) were injected intradermally ("i.d.") in the right flank of mice. […] The mean tumor size was monitored biweekly. […]
50 μg of CTLA4-IgG1 was admixed with DC-MCA205 or DC-TS/A in vitro, and the mixture was then administered in the tail vein of tumor-bearing animals (three to four injections every 4 days). […] Depletion of CD4^+ and CD8^+ T cells was monitored by flow cytometry. […]

Row | Molecule | HLA-A2 stabilization / binding (HLA-A2 [1]) | Patient PBL Response (responders/patients) (Mel 624 [2]) | Peak week of CTL reactivity, Patient PBL (Mel 624 [2]; melanoma patients) | Normal PBL Response (responders/donors) (Mel 624 [3]) | Peak week of CTL reactivity, Normal PBL (Mel 624 [3]) | also measured
1 | Asp-Gly-Leu-Ala-Pro-Pro-Gln-His-Leu-Ile-Arg (DGLAPPQHLIR) [p53 186-196] | stabilized HLA-A2 very poorly |  |  |  |  | 
2 | FLWGPRALV [MAGE-3] |  | 1/3 | 3 wk | 0/4 |  | 
3 | ILTVILGVL [p939] | less effective; also recorded: low affinity | 9/10 | 3-4 wk | 9/12 | 3-4 wk | lowest dose with peptide-specific release of interferon-γ (TIL 1235): 1 pM; lowest dose with peptide-specific release of interferon-γ (CTL clone A42): 1 pM; recognition and lysis of peptide-pulsed T2 cells (TIL 5403): able to recognize and lyse T2 cells; CTL reactivity over background (T2 target cells): 5-10%; EC50 (A42-clone): ~3 nM
4 | LLDGTATLRL [gp100 457-466] |  | 0/10 |  | 0/12 |  | 
5 | Lys-Gly-Ile-Leu-Gly-Phe-Val-Phe--Thr-Leu-Thr-Val [Flu M1] |  |  |  |  |  | GL1 lysis of peptide-pulsed HLA-A2+ targets (GL1 CTL): lysed
6 | MLLAVLYCL [Tyrosinase 1-9] |  | 0/10 |  | 1/12 |  | 
7 | Tyr-Leu-Glu-Pro-Gly-Pro-Val-Thr-Ala [gp100 280-288] | comparable | 8/10 | 3-4 wk | 9/12 | 3-4 wk | immunodominance by kinetics and magnitude of response (Mel 624 [2]; melanoma patients): immunodominant epitopes; lysis of Mel 624 by induced anti-melanoma CTL (Mel 624 [3]): greater than 20%; number of stimulations to induce anti-melanoma CTL (Mel 624 [3]): 2-3 stimulations; binding to HLA-A2 (HLA-A2 [4]): intermediate-to-low affinity
8 | YMDGTMSQV [Tyrosinase 368-376] |  | 6/10 |  | 7/12 | 3-4 wk | lysis of Mel 624 by induced anti-melanoma CTL (Mel 624 [3]): greater than 20%; number of stimulations to induce anti-melanoma CTL (Mel 624 [3]): 2-3 stimulations
9 | B1 |  |  |  |  |  | therapeutic effect alone (MCA205 fibrosarcoma): beneficial therapeutic effect
